Assay results reported in article PMC9127186, “Molecular Basis Underlying Hepatobiliary and Renal Excretion of Phenolic Acids of Salvia miltiorrhiza Roots (Danshen)” (Frontiers in Pharmacology, 2022).

Legend:
[1] = biological target: T1, human MRP4 (Homo sapiens, UniProt O15439); experiment: Vesicular transport assay, inside-out membrane vesicles expressing human MRP4; details: for TransportATP/TransportAMP ratio (net transport ratio): 10 min
T1 sequence (O15439 1-1325): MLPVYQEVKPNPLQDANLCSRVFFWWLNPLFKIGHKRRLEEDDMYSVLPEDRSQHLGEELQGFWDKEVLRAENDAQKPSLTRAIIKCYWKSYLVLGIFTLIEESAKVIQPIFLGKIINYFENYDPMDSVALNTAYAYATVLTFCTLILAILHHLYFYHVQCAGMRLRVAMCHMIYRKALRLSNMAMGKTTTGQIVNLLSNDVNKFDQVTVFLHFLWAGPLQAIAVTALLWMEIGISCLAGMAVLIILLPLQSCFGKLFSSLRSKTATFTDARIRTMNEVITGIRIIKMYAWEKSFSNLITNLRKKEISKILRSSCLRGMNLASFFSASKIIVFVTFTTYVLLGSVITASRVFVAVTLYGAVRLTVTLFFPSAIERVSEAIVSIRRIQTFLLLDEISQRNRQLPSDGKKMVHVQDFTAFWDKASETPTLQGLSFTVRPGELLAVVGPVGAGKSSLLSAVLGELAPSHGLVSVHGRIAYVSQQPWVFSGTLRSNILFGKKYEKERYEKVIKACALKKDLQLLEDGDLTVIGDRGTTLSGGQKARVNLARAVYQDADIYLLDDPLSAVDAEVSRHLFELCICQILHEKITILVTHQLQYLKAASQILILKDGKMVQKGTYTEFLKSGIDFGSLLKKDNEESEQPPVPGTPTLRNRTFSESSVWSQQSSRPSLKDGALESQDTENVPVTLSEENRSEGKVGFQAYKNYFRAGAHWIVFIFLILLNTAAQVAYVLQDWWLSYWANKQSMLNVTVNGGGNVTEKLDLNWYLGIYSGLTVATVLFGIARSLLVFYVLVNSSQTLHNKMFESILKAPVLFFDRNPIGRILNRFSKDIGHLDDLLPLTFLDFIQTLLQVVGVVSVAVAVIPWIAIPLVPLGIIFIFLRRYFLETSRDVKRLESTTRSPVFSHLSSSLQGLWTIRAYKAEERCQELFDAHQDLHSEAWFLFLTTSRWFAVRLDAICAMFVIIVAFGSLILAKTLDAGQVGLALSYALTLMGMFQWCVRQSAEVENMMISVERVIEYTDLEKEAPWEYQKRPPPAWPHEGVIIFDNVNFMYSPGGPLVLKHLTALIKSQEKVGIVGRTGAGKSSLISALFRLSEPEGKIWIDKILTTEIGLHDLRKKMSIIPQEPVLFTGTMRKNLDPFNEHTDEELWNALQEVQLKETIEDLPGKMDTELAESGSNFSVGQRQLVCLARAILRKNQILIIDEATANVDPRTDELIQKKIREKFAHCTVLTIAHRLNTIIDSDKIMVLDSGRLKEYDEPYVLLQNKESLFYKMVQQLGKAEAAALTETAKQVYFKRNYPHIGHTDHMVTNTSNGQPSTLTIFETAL
Protocol: Inside-out membrane vesicles (5 mg protein/mL), prepared from insect cells expressing human multidrug resistance-associated protein (MRP) 2, MRP3, MRP4, breast cancer resistance protein (BCRP), bile salt export pump (BSEP), and multidrug resistance protein (MDR) one and rat Mrp2, Mrp4, Bcrp, and Bsep, and vesicles (5 mg protein/mL; prepared from the insect cells expressing no ABC transporter; serving as negative control) were obtained from Genomembrane (Kanazawa, Japan).
The test Danshen compounds at 100 µM final concentration were separately incubated with the membrane vesicles for 10 min. Buffer C (50 mM MOPS-tris, 70 mM KCl, 7.5 mM MgCl2, pH 7.0) was used for preincubation and incubation, while buffer D (40 mM MOPS-tris, 70 mM KCl, pH 7.0) was used for vesicle washing. The transport rate (pmol/mg protein/min) of the test Danshen compound was calculated using Equation (2): Transport=(CV×VV)/T/WV (2) where C V, V V, T, and W V represent concentration of the compound in vesicular lysates supernatant (μM), volume of the lysates (μL), incubation time (10 min), and amount of vesicle protein amount per well (0.05 mg), respectively. Differential transport of the test Danshen compound between ATP-containing vesicles and AMP-containing vesicles was defined as net transport ratio (TransportATP/TransportAMP ratio). […] All the incubation samples were analyzed by liquid chromatography/mass spectrometry.

[2] = biological target: T2, rat Oatp1a1 (Rattus norvegicus, UniProt P46720); experiment: Cellular transport assay, HEK-293 cells expressing rat Oatp1a1; details: Danshen phenolic acid at 100 μM final concentration, 10 min; rat Oatp1a1-transfected vs mock cells
T2 sequence (P46720 1-670): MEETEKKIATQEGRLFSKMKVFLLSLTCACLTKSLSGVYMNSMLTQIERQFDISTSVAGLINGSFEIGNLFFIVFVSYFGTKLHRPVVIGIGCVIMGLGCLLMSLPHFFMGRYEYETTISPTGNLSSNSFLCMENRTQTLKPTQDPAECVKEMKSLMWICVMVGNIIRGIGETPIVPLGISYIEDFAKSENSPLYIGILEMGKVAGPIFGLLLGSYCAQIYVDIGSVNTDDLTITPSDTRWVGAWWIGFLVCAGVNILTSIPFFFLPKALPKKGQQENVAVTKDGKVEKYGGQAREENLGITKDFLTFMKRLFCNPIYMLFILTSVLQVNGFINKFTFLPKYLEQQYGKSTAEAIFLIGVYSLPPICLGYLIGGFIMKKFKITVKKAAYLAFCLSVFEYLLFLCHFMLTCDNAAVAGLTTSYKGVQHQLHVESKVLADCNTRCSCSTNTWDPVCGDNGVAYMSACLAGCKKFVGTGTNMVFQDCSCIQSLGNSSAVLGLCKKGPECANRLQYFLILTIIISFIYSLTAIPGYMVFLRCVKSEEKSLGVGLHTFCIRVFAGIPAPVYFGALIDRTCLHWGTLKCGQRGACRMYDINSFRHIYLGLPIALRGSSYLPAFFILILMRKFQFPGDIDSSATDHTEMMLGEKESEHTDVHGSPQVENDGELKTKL

[3] = Danshen phenolic acid at 100 μM final concentration, human MRP4 vesicles

Compound | TransportATP/TransportAMP ratio (net transport ratio) [1, 3] | TransportTC/TransportMC ratio (net transport ratio) [2] | TransportATP/TransportAMP ratio (net transport ratio) ([1]; human, 100 μM, pH 7) | substrate of human MRP4 [1]
O=C(/C=C/c1ccc(O)c2c1[C@H](C(=O)O)[C@@H](c1ccc(O)c(O)c1)O2)O[C@H](Cc1ccc(O)c(O)c1)C(=O)O [Lithospermic acid, lithospermic acid] | 1.36 ± 0.14 | 1.41 ± 0.67 |  | 
O=C(O)c1ccc(O)c(O)c1 [Protocatechuic acid, protocatechuic acid] | 1.25 ± 0.14 | 1.66 ± 0.77 |  | 
O=C(/C=C/c1ccc(O)c(O)c1)O[C@H](Cc1ccc(O)c(O)c1)C(=O)O [Rosmarinic acid, rosmarinic acid] |  |  | 1.99 ± 0.08 | 
O=C(/C=C/c1ccc(O)c(O)c1/C=C/c1ccc(O)c(O)c1)O[C@H](Cc1ccc(O)c(O)c1)C(=O)O [Salvianolic acid A, salvianolic acid A] |  |  | 1.56 ± 0.05 | 
O=C(O)Cc1c(/C=C/C(=O)O[C@H](Cc2ccc(O)c(O)c2)C(=O)O)ccc(O)c1O [Salvianolic acid D, salvianolic acid D] | 5.27 ± 0.51 | 2.45 ± 1.88 |  | substrate
salvianolic acid B | 1.99 ± 0.06 | 1.91 ± 0.42 |  | 
